# Laboratory results as given in PubChem BioAssay (NCI).
#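 Method: 48-hour compound exposure of cells in 96-well plates, five concentrations, linear interpolation of endpoints. GI50 marks 50% less growth. TGI: total growth inhibition.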
# How the values were obtained:
# Assay in all cases: NCI tumour cell line growth inhibition, 48 h
# OVCAR-3 ovarian = system: OVCAR-3 ovarian
# SR leukemia = system: SR leukemia
# IGROV1 ovarian = system: IGROV1 ovarian
# HL-60(TB) leukemia = system: HL-60(TB) leukemia
# A549 NSCLC = system: A549 NSCLC
# UO-31 renal = system: UO-31 renal
# SNB-75 CNS = system: SNB-75 CNS
# HT29 colon = system: HT29 colon
SMILES,GI50 (OVCAR-3 ovarian) [µM],TGI (OVCAR-3 ovarian) [µM],GI50 (SR leukemia) [µM],TGI (SR leukemia) [µM],GI50 (IGROV1 ovarian) [µM],TGI (IGROV1 ovarian) [µM],GI50 (HL-60(TB) leukemia) [µM],TGI (HL-60(TB) leukemia) [µM],GI50 (A549 NSCLC) [µM],TGI (A549 NSCLC) [µM],GI50 (UO-31 renal) [µM],TGI (UO-31 renal) [µM],GI50 (SNB-75 CNS) [µM],TGI (SNB-75 CNS) [µM],GI50 (HT29 colon) [µM],TGI (HT29 colon) [µM]
CN1C(=O)C(c2c[nH]c3ccccc23)=C(c2c(-c3c[nH]c4ccccc34)[nH]c3ccccc23)C1=O,0.92,2.99,5.19,9.68,9.53,> 100,2.41,8.21,3.83,13.9,15.2,> 100,1.74,18,2.73,8.36
Oc1cc(Cl)ccc1Cc1ccc(Cl)cc1O,3.71,13.9,10.5,> 100,12.5,31.2,9.67,> 100,14.7,41.1,4.89,20.1,13.5,34.4,17.5,31.3
c1cncc(CNc2ncn[nH]2)c1,,> 100,,> 100,,> 100,,,,> 100,,> 100,,> 100,,> 100
O=[N+]([O-])c1cccc(-c2cc(-c3cc(Br)ccc3O)[nH]n2)c1,2.1,5.8,1.66,4.8,2.27,7.06,1.15,3.45,2.42,6.68,2.34,9.38,2.68,14.5,3.55,12
COc1ccc(-c2csc3c2-n2cccc2C3=O)cc1O,< 0.0152,0.0434,< 0.01,31.9,0.824,> 47.3,0.0163,0.0955,0.112,> 91.5,0.401,50.6,0.0281,> 100,3.68,> 78.1
O=[N+]([O-])/C=C/c1ccc([N+](=O)[O-])cc1,1.84,3.28,2.29,8.33,2.06,5.29,5.38,54.8,3.15,13.1,1.83,3.69,1.87,4.02,2.07,5
C=C1C(=O)O[C@H]2C[C@@H]1CCC1(C)OC1CC/C(C)=C/CC[C@H]2C (stereo partly specified),19.1,35.1,18.1,33,35,96.8,,,19.7,39,29.8,86.6,,,20.1,34.3
N#C[C@H]1Nc2ccccc2[C@@H](O)C1O (stereo partly specified),,> 100,,> 100,,> 100,,> 100,,> 100,,,,> 100,,> 100
